Data published in patent US8420653B2, “Pyrimidine compounds and their uses” (Orchid Chemicals & Pharmaceuticals Limited, priority 2008, dated 2013).
Where two headings read alike, the source gives them in different places.

Assays:
TNF- α = test: TNF-α IC50 (Table XVa, assay not given); type: cell-based; conditions: Table XVa summary
PDE4 = tested on: T1, PDE4; test: PDE4 activity (source human U937 cells); type: biochemical; conditions: for PDE4 inhibition at 10 μM (%): source human U937 cells; for PDE4 at 10 μm: Table XVb summary
T1 construct: other: 10 μM, source human U937 cells; PDE4 at 10 μm
Method: PDE4 inhibition was measured by following a literature assay procedure (Cortizo J et al., Br J. Pharmacol., 1993, 108: 562-568. The assay method involves the following conditions.
Substrate: 1.01 μM [^3H] camp+camp
Pre-Incubation Time/Temperature: 15 minutes at 25° C.
Incubation Time/Temperature. 20 minutes at 25° C.
Incubation buffer: 50 mM Tris-HCl, pH 7.5, 5 mM MgCl2
Quantitation method: Quantitation of [^3H] Adenosine
Significance criteria: ≧50% of max stimulation or inhibition

HCT-116 = test: Anti-cancer screen (MTT), HCT-116; type: cell-based; conditions: Homo sapiens
Method: (§1) Experimental drugs are screened for anti-cancer activity in three cell lines for their GI50, TGI and LC50 values (using 5 concentrations for each compound). The cell lines are maintained in DMEM containing 10% fetal bovine serum. 96 well microtiter plates are inoculated with cells in […] for 24 hours at 37° C., 5% CO2, 95% air and 100% relative humidity. 5000 HCT116 cells/well, 5000 NCIH460 cells/well, 10000 U251 cells/well and 5000 MDAMB231 cells/well are plated. A separate plate with these cell lines is also inoculated to determine cell viability before the addition of the compounds (T0).
(§2) Following 24-hour incubation, experimental drugs are added to the 96 well plates. Each plate contains one of the above cell lines and the following in triplicate: 5 different concentrations (0.01, 0.1, 1, 10 and 100 μM) of 4 different compounds, appropriate dilutions of a cytotoxic standard and control (untreated) wells. Compounds are dissolved in dimethylsulfoxide (DMSO) to make 20 mM stock solutions, on the day of drug addition and frozen at −20° C. Serial dilutions of these 20 mM stock solutions are made in complete growth medium such that 100 μL of these drug solutions in medium, of final concentrations equaling 0.01, 0.1, 1, 10 and 100 μM can be added to the cells in triplicate. Standard drugs whose anti-cancer activity has been well documented and which are regularly used are doxorubicin and SAHA.
(§3) Cells are incubated with compounds for 48 hours followed by the addition of 10 μL 3-(4,5-Dimethyl-2-thiazolyl)-2,5-diphenyl-2H-tetrazolium (MTT) solution per well and a subsequent incubation at 37° C., 5% CO2, 95% air and 100% relative humidity, protected from light. After 4 hours, well contents are aspirated carefully followed by addition of 150 μL DMSO per well. Plates are agitated to ensure solution of the formazan crystals in DMSO and absorbance read at 570 nm.
(§4) Percent growth is calculated for each compound's concentration relative to the control and zero measurement wells (T0; viability right before compound addition). If a test well's O.D. value is greater than the T0 measurement for that cell line % Growth=(test−zero)/(control−zero)×100
(§5) If a test well's O.D. value is lower than the T0 measurement for that cell line, then: % Growth=(test−zero)/zero×100
(§6) Plotting % growth versus experimental drug concentration, GI50 is the concentration required to decrease % growth by 50%; TGI is the concentration required to decrease % growth by 100% and LC50 is the concentration required to decrease % growth by 150%.

IL-1β = IL-1β inhibition (Table XVa); type: cell-based; conditions: Table XVa summary
TNF-α = test: LPS induced sepsis for measurement of TNF-α inhibition in mice; type: in vivo; conditions: mice; for inhibition in vivo at 50 mg/kg: Mus musculus, 1.5 h, oral, serum 90 minutes after LPS; for TNF -α in vivo (mice): Table XVa summary, unit assumed
Method: LPS Induced Sepsis for Measurement of TNF-α Inhibition in Mice
The LPS induced sepsis model in mice was performed as described by Les sekut et al (J Lab Clin Med 1994; 124, 813-20). Female Swiss albino mice were selected and the body weights were equivalent within each group. The mice were fasted for 20 hours with free access to water. The mice were dosed orally with the test compound suspended in vehicle containing 0.5% Tween 80 in 0.25% Carboxy-methylcellulose sodium salt. The control mice were administered the vehicle alone. After 30 minutes of oral dosing, mice were injected with 500 μg of Lipopolysaccharide (Escherichia coli, LPS: B4 from Siga) in phosphate buffer saline solution into the intraperitoneal cavity of the mice. After 90 minutes of LPS administration mice were bled via retro-orbital sinus puncture. Blood samples were stored overnight at 4° C. Serum samples were collected by centrifuging the samples at 4000 rpm for 15 minutes at 4° C. Immediately the serum samples were analyzed for TNF-α levels using commercially available mouse TNF-α ELISA kit (Amersham Biosciences) and assay was performed by the manufacturer instruction.
ED50 Measurement of TNF Alpha Inhibition in Mice Sepsis Model

NCI-H460 = test: Anti-cancer screen (MTT), NCI-H460; type: cell-based; conditions: Homo sapiens
Method: as §1, §2, §3, §4, §5, §6

[1] = 48 hours, MTT, read-out: GI50 (μM) HCT-116
[2] = Table XVb summary, for HCT, read-out: Cancer cell lines DU, HCT, NCI (Mean GI50, μm), HCT
[3] = 48 hours, MTT, read-out: GI50 (μM) NCI-H460
[4] = Table XVb summary, for NCI, read-out: Cancer cell lines DU, HCT, NCI (Mean GI50, μm), NCI

IC50 (TNF- α) [µM] | GI50 (HCT-116; [1]) [µM] | GI50 (NCI-H460; [3]) [µM] | SMILES | PDE4 inhibition at 10 μM (%) (PDE4) | PDE4 at 10 μm (PDE4) | GI50 (HCT-116; [2]) [µM] | IL-1β at 10 μm (IL-1β) | inhibition in vivo at 50 mg/kg (TNF-α) [%] | TNF -α in vivo (mice) (TNF-α) [%] | GI50 (NCI-H460; [4]) [µM]
0.078 | > 100 | > 100 | NS(=O)(=O)c1cccc(-c2c(-c3ccc(F)cc3)nc(C(F)(F)F)nc2-n2ccnc2)c1 [Example 80, 3-[4-(4-Fluorophenyl)-6-(1H-imidazol-1-yl)-2-(trifluoromethyl)pyrimidin-5-yl]benzenesulfonamide] | 87 | 93 | > 100 | 36 | 82.8 | 87 | > 100
0.064 | > 100 | 10.5 | CCOC(=O)C1CCN(c2nc(C(F)(F)F)nc(-c3ccc(F)cc3)c2-c2cccc(S(N)(=O)=O)c2)CC1 [Example 59, Ethyl-1-[5-(3-aminosulfonylphenyl)-6-(4-fluorophenyl)-2-(trifluoromethyl)pyrimidin-4-yl]piperidine-4-carboxylate] | 93 | 87 | > 100 | 29 | 87.2 | 82 | 10.5
